# Values of other authors in PMC7576618 (British Journal of Clinical Pharmacology, 2020).
# Read-outs that look alike come from different tables or passages of the source.
# Assays:
# mGlu2 receptor [1] = conditions: read-out: in vitro EC50 for mGlu2 receptor; cited from earlier work
# mGlu2 receptor [2] = conditions: read-out: EC50 (assay system used by Eli Lilly); cited from earlier work
# [3] = humans; cited from earlier work
# [4] = active compound LY2812223; cited from earlier work
smiles,measurement,setting,value
"N[C@@]1(C(=O)O)CC[C@H]2[C@H](C(=O)O)[C@H]21 [LY354740, (+)‐2‐aminobicyclo[3.1.0]hexane‐2,6‐dicarboxylic acid]",EC50,mGlu2 receptor [1],0.0183 µM
same,EC50,mGlu2 receptor [2],0.0051 µM
CSCC[C@H](N)C(=O)N[C@@]1(C(=O)O)CS(=O)(=O)[C@H]2[C@H](C(=O)O)[C@H]21 [LY2140023],plasma exposure of the prodrug relative to that of LY404039,[3],approximately 30%
C[C@H](N)C(=O)N[C@@]1(C(=O)O)C[C@@H](Sc2nnc[nH]2)[C@H]2[C@H](C(=O)O)[C@H]21 [LY2979165],plasma levels of prodrug relative to its active compound,[4],< 1%
